# From paper PMC12461739, “Multi-targeted azacoumarin–cyanocinnamate hybrids induce G2/M arrest and apoptosis via tubulin, and COX-2/VEGFR modulation: insights from in vitro mechanistic basis and in vivo validation” (RSC Medicinal Chemistry, 2025)
# Several values for one entry are separate records, joined by “and”; a condition that tells them apart may be missing. Equal entries are not always repeated.
# Legend:
# [1] = Serum liver and kidney function markers (ALT, AST, creatinine, urea)
# Procedure: Blood samples were collected under light ether anesthesia via the retro-orbital venous plexus and centrifuged at 3000 rpm for 10 minutes. The resulting serum was separated and stored at −20 °C for biochemical analysis.
# Serum alanine aminotransferase (ALT) and aspartate aminotransferase (AST) levels were measured as indicators of liver function using commercially available assay kits (BioVenic, NY, USA, (AST) Cat. No.: IVEK3681, (ALT) Cat. No.: IVEK3446), in accordance with the manufacturer's instructions. In the ALT assay, the enzyme catalyzes the conversion of alanine to pyruvate, which is then reduced to lactate by lactate dehydrogenase, resulting in the oxidation of NADH to NAD^+. This reaction causes a decrease in absorbance at 340 nm, which is proportional to ALT activity. Similarly, the AST assay is based on the transamination of aspartate to oxaloacetate, which then reacts with NADH in the presence of malate dehydrogenase, leading to a decrease in NADH absorbance at 340 nm. For each assay, 10 μL of serum was added to the respective substrate buffer and incubated at 37 °C for 30 minutes. The change in absorbance was recorded using a microplate reader at 340 nm. Enzymatic activities were calculated and expressed in units per liter (U L^−1). All measurements were performed in triplicate, and results are presented as mean ± SD.[98,99]
# Serum creatinine and urea levels were assessed as indicators of renal function using colorimetric assay kits from BioAssay Systems (DICT-500, USA), according to the manufacturers' protocols. Creatinine concentration was determined based on a colorimetric enzymatic reaction. In this assay, creatinine is enzymatically converted to creatine and then to sarcosine, which is oxidized to produce hydrogen peroxide. The resulting hydrogen peroxide reacts with a chromogenic substrate in the presence of peroxidase to generate a colored product, the intensity of which is proportional to the creatinine concentration. Briefly, 10 μL of serum was mixed with 200 μL of working reagent, incubated at 25 °C for 5 minutes, and the absorbance was recorded at 510 nm using a microplate reader. Values were quantified against a standard curve and expressed in mg dL^−1. On the other hand, urea levels were measured based on an enzymatic reaction that produces a chromophore detectable at 340 nm. Specifically, 5 μL of serum was added to 200 μL of the assay reagent and incubated at 37 °C for 10 minutes. Absorbance was measured at 340 nm, and urea concentration was calculated using a standard curve and expressed as mg dL^−1.
# COX-1 = biological target: T1, COX-1 (Ovis aries, UniProt P05979); assay: COX-1 inhibitor screening (fluorometric); assay type: biochemical; conditions: read-out: IC50 toward COX-1
# T1 construct: purchased BioVision K548-100
# T1 sequence (P05979 25-600): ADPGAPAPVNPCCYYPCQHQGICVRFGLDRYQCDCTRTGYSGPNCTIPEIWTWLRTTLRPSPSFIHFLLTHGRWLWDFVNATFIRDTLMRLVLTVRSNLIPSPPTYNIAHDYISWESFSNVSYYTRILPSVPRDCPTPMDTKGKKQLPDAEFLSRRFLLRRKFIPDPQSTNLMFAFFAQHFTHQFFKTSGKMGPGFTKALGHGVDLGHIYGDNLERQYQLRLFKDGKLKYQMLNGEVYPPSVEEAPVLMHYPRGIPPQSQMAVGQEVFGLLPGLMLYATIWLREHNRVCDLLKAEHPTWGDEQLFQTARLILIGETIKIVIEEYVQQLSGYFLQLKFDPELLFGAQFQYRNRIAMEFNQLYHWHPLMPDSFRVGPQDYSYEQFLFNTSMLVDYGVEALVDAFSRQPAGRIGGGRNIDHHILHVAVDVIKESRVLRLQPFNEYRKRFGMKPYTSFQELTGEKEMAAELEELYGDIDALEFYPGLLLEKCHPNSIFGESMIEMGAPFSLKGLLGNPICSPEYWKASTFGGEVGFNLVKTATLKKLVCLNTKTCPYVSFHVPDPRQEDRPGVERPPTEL
# Procedure: COX-1 and COX-2 enzymes were reconstituted in sterile water (110 μL) and kept on ice until use. Arachidonic acid was activated by mixing 5 μL with 5 μL of NaOH, followed by a 10-fold dilution with water and vortexing. A reaction mixture (80 μL per well) was prepared by combining 76 μL of assay buffer, 1 μL of COX probe, 2 μL of 200-fold diluted COX cofactor, and 1 μL of COX-1 or COX-2 enzyme. This mix was added to each well, followed by 10 μL of the prepared arachidonic acid/NaOH solution to initiate the reaction. Fluorescence was recorded at 25 °C using a microplate reader. The percent inhibition was determined by comparing the fluorescence increase in treated wells relative to the enzyme control. IC50 values were calculated from the concentration–response curves using GraphPad Prism.
# α-tubulin = assay: Western blot of α-tubulin in MCF-7 cells; assay type: cell-based, human; conditions: MCF-7, 7.653 μM (IC50)
# Procedure: Cells were lysed in RIPA buffer (Thermo Scientific, Cat. #89900) containing protease and phosphatase inhibitors, and lysates were centrifuged at 12 000 × g for 15 min at 4 °C. Protein concentrations were determined using the BCA assay (Thermo Scientific, Cat. #23225), and equal amounts (20–50 μg) were mixed with 2× Laemmli sample buffer (Bio-Rad, Cat. #1610737) and denatured at 95 °C for 5 min. Proteins were separated on SDS-PAGE gels (8–10% for α-tubulin, 12% for β-actin; Bio-Rad TGX™, Cat. #456-9033) and transferred to PVDF membranes (Immobilon-P, Millipore, Cat. #IPVH00010) using a wet transfer system (100 V, 1 h, 4 °C). Membranes were blocked with 5% non-fat milk in TBST for 1 h at room temperature and incubated overnight at 4 °C with anti-α-tubulin (1 : 1000, Cell Signaling Technology, Cat. #3873) and anti-β-actin (1 : 5000, Sigma-Aldrich, Cat. #A5441) antibodies. After washing, membranes were incubated with HRP-conjugated secondary antibodies ([…], Cell Signaling Technology) for 1 h at room temperature. Protein bands were visualized using the SuperSignal™ West Pico/Femto ECL substrate (Thermo Scientific, Cat. #34095) and imaged with a Bio-Rad ChemiDoc system. Band intensities were quantified by densitometry using ImageJ software and normalized to β-actin levels.[82–84]
# [2] = Kidney histopathology (H&E); conditions: compound 7 + EAC
# Description: Additionally, liver and kidney tissues were excised from each animal for further evaluation. […] The second portion was fixed in 10% neutral buffered formalin for histopathological examination to assess tissue morphology and damage.[96,97]
# Liver and kidney tissues were collected from all experimental groups at the end of the study and immediately fixed in 10% neutral buffered formalin. After fixation, the samples were dehydrated, embedded in paraffin, and sectioned at a thickness of 5 μm using a rotary microtome. […] Histopathological examination of renal tissue focused on identifying acute tubular injury (ATI), characterized by tubular epithelial cell flattening, necrosis, apical vacuolization, and loss of the brush border. These features were assessed using a semi-quantitative scoring system.[110] Hepatic tissue sections were evaluated for the severity of hepatocellular injury using a modified Brunt grading system, which includes assessment of hepatocyte ballooning, necrosis, inflammation, and other degenerative changes.
# p53 = assay: qRT-PCR gene expression, p53; assay type: cell-based, human; conditions: MCF-7, 7.653 μM, 24 h
# Procedure: Untreated cells served as negative controls. RNA concentration and purity were verified spectrophotometrically prior to cDNA synthesis. Complementary DNA (cDNA) was synthesized from purified RNA using the RT^2 First Strand Kit (Qiagen, Valencia, CA, USA) following the supplied protocol. Quantitative real-time PCR (qRT-PCR) was performed on a Corbett Rotor-Gene 6000 system (Qiagen, USA) using the RT^2 SYBR® Green ROX™ FAST Master Mix (Qiagen). Each 25 μL reaction contained 12.5 μL of master mix, 1 μL of gene-specific primers (RT^2 qPCR Primer Assays, Qiagen), 1 μL of cDNA template, and 10.5 μL of RNase-free water. Gene-specific primers were selected using the PrimerBank database for BAX, BCL2, and TP53, along with GAPDH as the endogenous control (Table S3). Thermal cycling conditions were set as follows: initial enzyme activation at 95 °C for 10 minutes, followed by 40 cycles of denaturation at 95 °C for 15 seconds, and annealing at 60 °C for 30 seconds. Amplification specificity was confirmed by melting curve analysis. Gene expression levels were normalized to GAPDH mRNA as the internal reference, and relative quantification was performed using the ΔΔCt method. […] Statistical analysis was performed using GraphPad Prism software, with p < 0.05 considered statistically significant.[79]
compound,measurement,setting,value
"CCOC(=O)/C(C#N)=C/c1ccc(Oc2c(C)c3cc(Br)c(O)c(Br)c3[nH]c2=O)cc1 [Compound 7, ethyl (E)-2-cyano-3-(4-((6,8-dibromo-7-hydroxy-4-methyl-2-oxo-1,2-dihydroquinolin-3-yl)oxy)phenyl)acrylate]",serum creatinine,"[1]; EAC + compound 7 (10 mg kg^−1 i.p.), EAC control 1.7 ± 0.04",0.6 ± 0.02 mg/dL
same,serum urea,"[1]; EAC + compound 7 (10 mg kg^−1 i.p.), EAC control 94 ± 1.78",44.83 ± 0.7 mg/dL
same,serum ALT,"[1]; EAC + compound 7 (10 mg kg^−1 i.p.), EAC control 140.66 ± 3.45",49.83 ± 1.16 U L^−1
same,serum AST,"[1]; EAC + compound 7 (10 mg kg^−1 i.p.), EAC control 168.33 ± 3.7",57.5 ± 1.56 U L^−1
same,serum ALT,"[1]; compound 7-control group, no EAC (10 mg kg^−1 i.p.), untreated 27.16 ± 0.94",22.83 ± 0.6 U L^−1
same,serum creatinine,"[1]; compound 7-control group, no EAC, untreated 0.5 ± 0.02",0.5 ± 0.03 mg/dL
same,serum urea,"[1]; compound 7-control group, no EAC, untreated 24.16 ± 1.07",21.83 ± 0.6 mg/dL
same,serum AST,"[1]; compound 7-control group, no EAC, untreated 41.66 ± 1.3",37.83 ± 0.94 U L^−1
same,IC50,COX-1,7.49 µM and 7.5 µM
same,reduction of α-tubulin protein expression vs untreated control,α-tubulin,2.7 fold
same,nephropathy class,[2],class II
same,glomerular involvement,[2]; EAC group approximately 25%,15%
same,p53 expression relative to untreated control,p53,3.03 fold
